{
  "source": "patent US20100087383A1",
  "about": "“INT[…] INHIBITOR AND USE THEREOF” (National University Corporation Nagoya University, priority 2006, published 2010)",
  "key": {"[1]": {"test_system": "Alzheimer's disease mouse model subjected to intraventricular injection of Aβ", "assay": "Novel object recognition test, oral administration, Alzheimer's disease mouse model subjected to intraventricular injection of Aβ25-35", "format": "in vivo", "conditions": "day 5 after Aβ25-35, ICR mice, FIG. 2", "description": "(§1) An Alzheimer's disease mouse model was produced by injecting Aβ25-35 (the aggregation of which had been accelerated by 4 days of incubation at 37° C.) to mouse cerebral ventricle, following which it was used for the experimental system. ICR mice (body weight of 20-22 g (7 weeks old), purchased from Japan SLC Inc. (Shizuoka, Japan)) were divided into 4 groups (n=15). A physiological saline solution that is a solvent for Leu-Ile, Leu-Ile (1.5 μmol/Kg), or Leu-Ile (15 μmol/Kg) was administered to Alzheimer's disease mouse model groups. Then the groups were used for the experiment.\nMoreover, an Leu-Ile 7.5 μmol/Kg administrated group and an Leu-Ile 75 μmol/Kg administrated group were subjected to oral administration of Leu-Ile (7.5 μmol/Kg) and Leu-Ile (75 μmol/Kg), respectively, immediately after administration of Aβ25-35. A novel object recognition test (Ennaceur et al., Behav Brain Res 80 9-25, 1996) was conducted for all groups 3 to 5 days after intraventricular administration of Aβ25-35 or a physiological saline solution. The test results on day 5 after administration of Aβ25-35 or a physiological saline solution were compared with the other test results on […] after administration (FIG. 2)."}, "[2]": {"test_system": "Alzheimer's disease mouse model subjected to intraventricular injection of Aβ", "assay": "Novel object recognition test, intraperitoneal administration, Alzheimer's disease mouse model subjected to intraventricular injection of Aβ25-35", "format": "in vivo", "conditions": "day 5 after Aβ25-35, ICR mice, FIG. 3", "description": "as §1, with “cerebral ventricle and then” for “cerebral ventricle, following which it was”, “20-22 g,” for “20-22 g (7 weeks old),”, “into 5” for “into 4”, “solution was administered instead of Aβ25-35 to the cerebral ventricle of a control group. A physiological saline solution;” for “solution”\nThe Alzheimer's disease model control group, the Leu-Ile […] administrated group, the Leu-Ile 15 μmol/Kg administrated group, and an Leu-Ile 75 μmol/Kg administrated group were separately subjected to the experiment.\nSpecifically, the Leu-Ile 7.5 μmol/Kg administrated group, the Leu-Ile 15 μmol/Kg administrated group, and the Leu-Ile 75 μmol/Kg administrated group were subjected to intraperitoneal administration of Leu-Ile (7.5 μmol/Kg), Leu-Ile (15 μmol/Kg), and Leu-Ile (75 μmol/Kg), respectively, immediately after administration of Aβ25-35.\n(§2) A novel object recognition test was conducted for each of the above groups 3 to 5 days after intraventricular administration of Aβ25-35 or a physiological saline solution. The test results on day 5 after administration of Aβ25-35 or a physiological saline solution were compared with the other test results on […] after administration (FIG. 3). Furthermore, Leu-Ile (15 μmol/Kg) was intraperitoneally administered to untreated mice and then the mice were subjected to a novel object recognition test similar to that conducted for the above test groups."}, "[3]": {"test_system": "untreated mice", "assay": "Novel object recognition test in untreated mice", "format": "in vivo, mouse", "conditions": "Leu-Ile 15 μmol/Kg intraperitoneal; untreated mice (no Aβ25-35)", "description": "as §2"}},
  "data": [
    {"substance": "Leu-Ile", "values": [
      {"measurement": "recognition indices (novel object recognition test)", "setting": "[1]; Leu-Ile 7.5 μmol/Kg oral", "value": "decreased recognition indices were not confirmed"},
      {"measurement": "recognition indices (novel object recognition test)", "setting": "[1]; Leu-Ile 75 μmol/Kg oral", "value": "decreased recognition indices were not confirmed"},
      {"measurement": "recognition indices (novel object recognition test)", "setting": "[2]; Leu-Ile 1.5 μmol/Kg intraperitoneal", "value": "decreased recognition indices were not observed"},
      {"measurement": "recognition indices (novel object recognition test)", "setting": "[2]; Leu-Ile 15 μmol/Kg intraperitoneal", "value": "decreased recognition indices were not observed"},
      {"measurement": "recognition indices (novel object recognition test)", "setting": "[2]; Leu-Ile 75 μmol/Kg intraperitoneal", "value": "decreased recognition indices were not observed"},
      {"measurement": "effects of improving memory (novel object recognition test)", "setting": "[3]", "value": "effects of improving memory were not observed"}
    ]}
  ]
}
